Reference: PubChem BioAssay AID330 (DTP/NCI, 2004)
“And” between values parts separate entries of the source, which are not always exact repeats. Equal entries are not always repeated. Inconclusive results and toxic doses are left out.

Test system: P388 leukemia ip, CD2F1 mice, survival T/C
Assay: NCI In Vivo Anticancer Drug Screen. Data for tumor model P388 Leukemia (intraperitoneal) in CD2F1 (CDF1) mice
Conditions: endpoint: median survival time, higher = longer survival
Summary of the method: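 Mice carrying the transplanted tumor received test compound or vehicle. Survival was recorded in each group, and the value is the treated-group measurement divided by that of the vehicle-treated control group.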

[1] = dose: 50.0 mg/kg/injection, schedule: Q01DX009 (ip), vehicle: Klucel (hydroxypropylcellulose) (HPC)
[2] = dose: 100.0 mg/kg/injection, schedule: Q01DX009 (ip), vehicle: Klucel (hydroxypropylcellulose) (HPC)
[3] = dose: 12.5 mg/kg/injection, schedule: Q01DX009 (ip), vehicle: saline
[4] = dose: 25.0 mg/kg/injection, schedule: Q01DX009 (ip), vehicle: saline
[5] = dose: 100.0 mg/kg/injection, schedule: Q01DX009 (ip), vehicle: saline with Tween-80

CCn1c(=O)n(C)c(=O)c2[nH]c(Cl)nc21
T/C (dose: 16.0 mg/kg/injection, schedule: Q01DX009 (ip), vehicle: Klucel (hydroxypropylcellulose) (HPC)): 105 % of control
T/C (dose: 25.0 mg/kg/injection, schedule: Q01DX009 (ip), vehicle: Klucel (hydroxypropylcellulose) (HPC)): 92 % of control
T/C (dose: 32.0 mg/kg/injection, schedule: Q01DX009 (ip), vehicle: Klucel (hydroxypropylcellulose) (HPC)): 104 % of control
T/C [1]: 91 % of control
T/C (dose: 64.0 mg/kg/injection, schedule: Q01DX009 (ip), vehicle: Klucel (hydroxypropylcellulose) (HPC)): 97 % of control
T/C [2]: 94 % of control

O=c1cccccc1O
T/C [3]: 105 % of control and 107 % of control
T/C [4]: 100 % of control

CC1(C)N=C(N)N=C(N)N1c1ccc(OCCNS(=O)(=O)c2cccc(S(=O)(=O)F)c2)c(Cl)c1
T/C [3]: 152 % of control
T/C [4]: 157 % of control
T/C (dose: 50.0 mg/kg/injection, schedule: Q01DX009 (ip), vehicle: saline): 168 % of control
T/C [5]: 154 % of control

CC(=O)Nc1nc(N)nc2c1CC(N(Cc1ccc(Cl)cc1)C(C)=O)CC2 (stereo not drawn)
T/C (dose: 50.0 mg/kg/injection, schedule: Q01DX009 (ip), vehicle: saline with Tween-80): 108 % of control
T/C [5]: 119 % of control
T/C (dose: 200.0 mg/kg/injection, schedule: Q01DX009 (ip), vehicle: saline with Tween-80): 154 % of control

CC(C)CC(NC(=O)C(Cc1ccccc1)NC(=O)CNC(=O)CNC(=O)C(N)Cc1ccc(O)cc1)C(N)=O (stereo not drawn)
T/C (dose: 8.75 mg/kg/injection, schedule: Q01DX005 (ip), vehicle: saline): 108 % of control
T/C (dose: 17.5 mg/kg/injection, schedule: Q01DX005 (ip), vehicle: saline): 110 % of control
T/C (dose: 35.0 mg/kg/injection, schedule: Q01DX005 (ip), vehicle: saline): 104 % of control
T/C (dose: 70.0 mg/kg/injection, schedule: Q01DX005 (ip), vehicle: saline): 112 % of control
T/C (dose: 140.0 mg/kg/injection, schedule: Q01DX005 (ip), vehicle: saline): 108 % of control

[Mn+2].[O-]c1cc(Br)ccc1/C=N/Nc1ccccn1.[O-]c1cc(Br)ccc1/C=N/Nc1ccccn1
T/C (dose: 100.0 mg/kg/injection, schedule: Q01DX005 (ip), vehicle: saline with Tween-80): 87 % of control
T/C (dose: 200.0 mg/kg/injection, schedule: Q01DX005 (ip), vehicle: saline with Tween-80): 91 % of control
T/C (dose: 400.0 mg/kg/injection, schedule: Q01DX005 (ip), vehicle: saline with Tween-80): 100 % of control

CC(=O)C1(CCC(C)(S(=O)(=O)c2ccccc2)S(=O)(=O)c2ccccc2)CCCCC1=O (stereo not drawn)
T/C (dose: 100.0 mg/kg/injection, schedule: Q01DX001 (ip), vehicle: Klucel (hydroxypropylcellulose) (HPC)): 99 % of control
T/C (dose: 200.0 mg/kg/injection, schedule: Q01DX001 (ip), vehicle: Klucel (hydroxypropylcellulose) (HPC)): 100 % of control
T/C (dose: 400.0 mg/kg/injection, schedule: Q01DX001 (ip), vehicle: Klucel (hydroxypropylcellulose) (HPC)): 106 % of control

O=C(c1ccc(Cl)nc1)c1cccs1
T/C (dose: 50.0 mg/kg/injection, schedule: Q01DX005 (ip), vehicle: distilled water + alcohol): 98 % of control
T/C (dose: 100.0 mg/kg/injection, schedule: Q01DX005 (ip), vehicle: distilled water + alcohol): 108 % of control
T/C (dose: 200.0 mg/kg/injection, schedule: Q01DX005 (ip), vehicle: distilled water + alcohol): 110 % of control

CC(=O)Oc1cc2c(c3ccccc13)OC(=O)CCCCCCCCCCC2=O
T/C (dose: 100.0 mg/kg/injection, schedule: Q04DX002 (ip), vehicle: Klucel (hydroxypropylcellulose) (HPC)): 93 % of control
T/C (dose: 200.0 mg/kg/injection, schedule: Q04DX002 (ip), vehicle: Klucel (hydroxypropylcellulose) (HPC)): 118 % of control
T/C (dose: 400.0 mg/kg/injection, schedule: Q04DX002 (ip), vehicle: Klucel (hydroxypropylcellulose) (HPC)): 107 % of control

O=S(=O)(Nc1ccnn1-c1ccccc1)c1ccc(N=Cc2c3ccccc3nc3cc(Cl)ccc23)cc1
T/C (dose: 60.0 mg/kg/injection, schedule: Q01DX005 (ip), vehicle: saline with Tween-80): 94 % of control
T/C (dose: 120.0 mg/kg/injection, schedule: Q01DX005 (ip), vehicle: saline with Tween-80): 91 % of control
T/C (dose: 240.0 mg/kg/injection, schedule: Q01DX005 (ip), vehicle: saline with Tween-80): 102 % of control

CCCCCCCC(=O)Nc1ncc([N+](=O)[O-])s1
T/C [1]: 106 % of control
T/C [2]: 106 % of control
T/C (dose: 200.0 mg/kg/injection, schedule: Q01DX009 (ip), vehicle: Klucel (hydroxypropylcellulose) (HPC)): 113 % of control
